Results taken from paper PMC6133092, “Synthesis of 2-alkylthio-N-(quinazolin-2-yl)benzenesulfonamide derivatives: anticancer activity, QSAR studies, and metabolic stability” (Monatshefte Fur Chemie, 2018).

Assays:
EKVX = test: NCI-60 single dose screen, EKVX; type: cell-based; details: Homo sapiens, NSCLC, single concentration 10^−5 M, read-out: IGP (inhibition growth percent) EKVX
Protocol: (§1) Aside from above, compounds 9–14 and 17–24 were also submitted to National Cancer Institute and evaluated for the cytotoxic effects toward 60 cell lines at a single dose of 10 μM (Table 2). […] As it was summarized in Table 2, leukemia RPMI-8226 and NSCLC A549/ATCC were most sensitive to compounds 18, 22, and 24. These derivatives in 10 μM concentration inhibited the growth of approximately 50% cells belonging to the above mention cell lines.
(§2) Cytotoxicity evaluation of compounds 9–14 and 17–24 was performed at the National Cancer Institute according to NCI-60 DTP human tumor cell line screen procedure.

MOLT-4 = test: NCI-60 single dose screen, MOLT-4; type: cell-based; details: Homo sapiens, Leukemia, single concentration 10^−5 M, read-out: IGP (inhibition growth percent) MOLT-4
Protocol: as §1, §2

UACC-62 = test: NCI-60 single dose screen, UACC-62; type: cell-based; details: Homo sapiens, Melanoma, single concentration 10^−5 M, read-out: IGP (inhibition growth percent) UACC-62
Protocol: as §1, §2

SR = test: NCI-60 single dose screen, SR; type: cell-based; details: Homo sapiens, Leukemia, single concentration 10^−5 M, read-out: IGP (inhibition growth percent) SR
Protocol: as §1, §2

HOP-92 = test: NCI-60 single dose screen, HOP-92; type: cell-based; details: Homo sapiens, NSCLC, single concentration 10^−5 M, read-out: IGP (inhibition growth percent) HOP-92
Protocol: as §1, §2

MCF-7 (breast cancer) = test: MTT cell viability assay, MCF-7; type: cell-based, human; details: Homo sapiens, MCF7, 72 h, mean ± SD
Protocol: All of the newly synthesized compounds 9–24 were evaluated for their effects on cell viability in three human cancer cell lines: HCT-116 (colon cancer), HeLa (cervical cancer), and MCF-7 (breast cancer). Cisplatin was used as reference drug. […] Considering the activity of derivatives 9–12, 15, 17, 18, and 21–24, it can be noticed that phenyl group as R^3 bring an increase of cytotoxicity in comparison with methyl in place of R^3. However, this impact seems to be the most important for compounds with the bulky group in R^1 and generally, it is less for a set of derivatives with methyl group substituted in R^1 (9–12).
(§3) All chemicals, if not stated otherwise, were obtained from Sigma-Aldrich (St. Louis, MO, USA). The MCF-7 and HeLa cell lines were purchased from Cell Lines Services (Eppelheim, Germany), the HCT-116 cell line was purchased from ATCC (ATCC-No: CCL-247). Cells were cultured in Dulbecco’s modified Eagle’s medium (DMEM) supplemented with 10% fetal bovine serum, 2 mM glutamine, 100 units/cm^3 penicillin, and 100 μg/cm^3 streptomycin. Cultures were maintained in a humidified atmosphere with 5% CO2 at 37 °C in an incubator (Heraceus, HeraCell).
(§4) Cell viability was determined using the MTT (3-(4,5-dimethylthiazol-2-yl)-2,5-diphenyltetrazolium bromide) assay. Cells were seeded in 96-well plates at a density of 5 × 10^3 cells/well and treated for 72 h with the examined compounds in the concentration range 1–100 μM (1, 10, 25, 50, and 100 μM). Following treatment, MTT (0.5 mg/cm^3) was added to the medium and cells were further incubated for 2 h at 37 °C. Cells were lysed with DMSO and the absorbance of the formazan solution was measured at 550 nm with a plate reader (Victor, 1420 multilabel counter). […] The experiment was performed in triplicate. Values are expressed as the mean ± SD of at least three independent experiments.

HCT-116 (colon cancer) = test: MTT cell viability assay, HCT-116; type: cell-based; details: Homo sapiens, 72 h, mean ± SD
Protocol: as §3, §4

HCT-116 = test: NCI-60 single dose screen, HCT-116; type: cell-based; details: Homo sapiens, Colon cancer, single concentration 10^−5 M, read-out: IGP (inhibition growth percent) HCT-116
Protocol: as §1, §2

UO-31 = test: NCI-60 single dose screen, UO-31; type: cell-based; details: Homo sapiens, Renal cancer, single concentration 10^−5 M, read-out: IGP (inhibition growth percent) UO-31
Protocol: as §1, §2

NCI-H522 = test: NCI-60 single dose screen, NCI-H522; type: cell-based; details: Homo sapiens, NSCLC, single concentration 10^−5 M, read-out: IGP (inhibition growth percent) NCI-H522
Protocol: as §1, §2

HeLa (cervical cancer) = test: MTT cell viability assay, HeLa; type: cell-based; details: Homo sapiens
Protocol: as §3, §4

HaCaT = test: Cytotoxic effect against non-carcinogenic cell line HaCaT; type: cell-based; details: for IC50: Homo sapiens, HaCaT, non-carcinogenic cell line, mean ± SD; for activity against HCT-116 fold higher compared with HaCaT: selectivity HCT-116 vs HaCaT; for inhibition of growth of HaCaT cells fold weaker than HeLa cells: selectivity HeLa vs HaCaT
Protocol: For the compounds with the strongest cytotoxicity (12, 18, 22, and 24), an investigation of cytotoxic effect against non-carcinogenic cell line HaCaT was done. […] The activity against HCT-116 was 1.7-, 1.6-, 1.5-, and 1.4-fold higher when compared with HaCaT cell line, for compounds 12, 18, 22, and 24, respectively.
as §4

[1] = Table 4, repeats Table 1 values without SD and unit

Compound | inhibition at 10 µM (EKVX) [%] | inhibition at 10 µM (MOLT-4) [%] | inhibition at 10 µM (UACC-62) [%] | inhibition at 10 µM (SR) [%] | inhibition at 10 µM (HOP-92) [%] | IC50 (MCF-7 (breast cancer)) [µM] | IC50 (HCT-116 (colon cancer)) [µM] | inhibition at 10 µM (HCT-116) [%] | inhibition at 10 µM (UO-31) [%] | inhibition at 10 µM (NCI-H522) [%] | IC50 (HeLa (cervical cancer); MTT, 72 h, mean ± SD) [µM] | IC50 (HeLa (cervical cancer); [1]) [µM] | IC50 (HaCaT) [µM] | activity against HCT-116 fold higher compared with HaCaT (HaCaT) [fold] | inhibition of growth of HaCaT cells fold weaker than HeLa cells (HaCaT) [fold]
O=C(Nc1ccccc1)c1cc(S(=O)(=O)Nc2nc(-c3ccccc3)c3ccccc3n2)c(SCc2ccccc2)cc1Cl [Compound 18, 2-Benzylthio-4-chloro-5-phenylcarbamoyl-N-(4-phenylquinazolin-2-yl)benzenesulfonamide] | 35 | 36 | 39 | 28 | 26 | 46 ± 1 | 42 ± 1 | 31 | 3 | 25 | 46 ± 2 | 46 | 68 ± 2 | 1.6 | 1.5
O=C(Nc1ccc(Cl)cc1)c1cc(S(=O)(=O)Nc2nc(-c3ccccc3)c3ccccc3n2)c(SCc2ccccc2)cc1Cl [Compound 22, 2-Benzylthio-4-chloro-5-(4-chlorophenylcarbamoyl)-N-(4-phenylquinazolin-2-yl)benzenesulfonamide] | 28 | 52 | 40 | 40 | 34 | 53 ± 1 | 39 ± 1 | 39 | 35 | 35 | 42 ± 0.5 | 42 | 59 ± 1 | 1.5 | 1.4
Cc1ccc(NC(=O)c2cc(S(=O)(=O)Nc3nc(-c4ccccc4)c4ccccc4n3)c(SCc3ccccc3)cc2Cl)cc1 [Compound 24, 2-Benzylthio-4-chloro-5-(4-methylphenylcarbamoyl)-N-(4-phenylquinazolin-2-yl)benzenesulfonamide] | 45 | 21 | 28 | 23 | 26 | 52 ± 3 | 41 ± 1 | 44 | 25 | 28 | 44 ± 3 |  | 58 ± 1 | 1.4 | 1.3
